Data as given in US20240025900A1, “TETRACYCLIC COMPOUNDS AS DGK INHIBITORS” (Incyte Corporation, priority 2022, published 2024).
pIC50: −log10 of the molar value.

Tests used:
DGKα = DGKα (Homo sapiens (Human), UniProt P23743); assay: In vitro DGKα inhibition assay (ADP-Glo); type: biochemical; conditions: His-tagged human recombinant DGKα 0.1 nM, 50 μM ATP, 20 μM DLG
Method: (§1) The DGKα and DGKζ biochemical reactions were performed using His-tagged human recombinant enzymes (Signal Chem, DGKα, #D21-10BH; DGKζ, #D30-10H)) and DLG (Dilauroyl-sn-glycerol) lipid substrate (Signal Chem, #D430-59). ADP-Glo assay was performed using ADP-Glo™ kinase Assay kit (Promega, #V9104). The reactions were carried out in assay buffer containing 40 mM Tris, pH 7.5, 0.1% CHAPS, 0.1% Prionex, 40 mM NaCl, 5 mM MgCl2, 1 mM CaCl2, and 1 mM DTT. DGKα reactions contained 0.1 nM DGKα, 50 μM ATP, and 20 μM DLG. And DGKζ reactions contained 0.4 nM DGKζ, 30 μM ATP, and 20 μM DLG.
(§2) For compound inhibition studies, 40 nL test compound in DMSO was added to wells of white polystyrene plates in 384-well (Greiner, #784075) or 1536-well format (Greiner, #782075). Compounds were added with top concentration of 2 mM with 11 point, 3-fold dilution series. Enzyme solution (contains 2×DGK enzyme concentration in 1× assay buffer) was added to the plate in 2 μL/well volume, followed by 2 μL/well of substrate solution (contains 2×concentration of ATP and DLG substrate in 1× assay buffer). Plates were then centrifuged for 1 min at 1200 RPM and sealed or lidded. For 4 μL reaction volume, test compounds were therefore diluted 100× to final top concentration of 20 μM. After 90 minute incubation, reactions were quenched by addition of 2 μL/well Promega ADP-Glo Reagent, followed by centrifugation and lidding. After 60 min incubation, 2 μL/well Promega Kinase Detection Reagent was added, plates centrifuged, and incubated for 30 min. Plates were then read using Luminescence method on BMG PHERAstar FSX plate reader. Percent inhibition was calculated and IC50s were determined using 4-parameter fit in Genedata Screener. Labcyte Echo acoustic dispenser was used for compound addition, and Formulatrix Tempest liquid handler was used for all reagent dispenses.

DGKζ = DGKζ (Homo sapiens (Human), UniProt Q13574); assay: In vitro DGKζ inhibition assay (ADP-Glo); type: biochemical; conditions: His-tagged human recombinant DGKζ 0.4 nM, 30 μM ATP, 20 μM DLG
Method: as §1, §2

Sequence of DGKζ (Q13574 whole entry): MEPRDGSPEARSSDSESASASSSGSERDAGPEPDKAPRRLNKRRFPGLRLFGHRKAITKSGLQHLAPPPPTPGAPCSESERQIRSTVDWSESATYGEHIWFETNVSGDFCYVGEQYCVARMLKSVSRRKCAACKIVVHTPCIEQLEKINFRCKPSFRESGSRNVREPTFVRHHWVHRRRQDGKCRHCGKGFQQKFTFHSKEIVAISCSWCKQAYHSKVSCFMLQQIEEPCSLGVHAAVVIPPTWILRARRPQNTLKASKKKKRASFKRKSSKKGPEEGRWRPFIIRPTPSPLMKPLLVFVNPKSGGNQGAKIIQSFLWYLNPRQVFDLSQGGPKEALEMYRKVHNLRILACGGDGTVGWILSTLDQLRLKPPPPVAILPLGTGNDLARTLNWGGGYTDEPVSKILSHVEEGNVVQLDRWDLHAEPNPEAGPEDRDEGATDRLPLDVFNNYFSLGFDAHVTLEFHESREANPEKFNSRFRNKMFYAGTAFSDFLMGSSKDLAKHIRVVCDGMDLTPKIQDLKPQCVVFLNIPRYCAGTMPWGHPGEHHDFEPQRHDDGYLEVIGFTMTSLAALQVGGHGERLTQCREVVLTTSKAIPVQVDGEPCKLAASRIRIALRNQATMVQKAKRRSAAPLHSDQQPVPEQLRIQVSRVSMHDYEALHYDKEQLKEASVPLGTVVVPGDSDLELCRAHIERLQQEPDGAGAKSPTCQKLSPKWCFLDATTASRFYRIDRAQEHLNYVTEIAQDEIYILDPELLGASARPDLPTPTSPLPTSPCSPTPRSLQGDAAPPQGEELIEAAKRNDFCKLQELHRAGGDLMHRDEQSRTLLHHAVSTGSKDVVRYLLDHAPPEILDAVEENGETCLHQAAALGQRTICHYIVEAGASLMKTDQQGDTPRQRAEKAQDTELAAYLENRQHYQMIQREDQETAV
Sequence of DGKα (P23743 whole entry): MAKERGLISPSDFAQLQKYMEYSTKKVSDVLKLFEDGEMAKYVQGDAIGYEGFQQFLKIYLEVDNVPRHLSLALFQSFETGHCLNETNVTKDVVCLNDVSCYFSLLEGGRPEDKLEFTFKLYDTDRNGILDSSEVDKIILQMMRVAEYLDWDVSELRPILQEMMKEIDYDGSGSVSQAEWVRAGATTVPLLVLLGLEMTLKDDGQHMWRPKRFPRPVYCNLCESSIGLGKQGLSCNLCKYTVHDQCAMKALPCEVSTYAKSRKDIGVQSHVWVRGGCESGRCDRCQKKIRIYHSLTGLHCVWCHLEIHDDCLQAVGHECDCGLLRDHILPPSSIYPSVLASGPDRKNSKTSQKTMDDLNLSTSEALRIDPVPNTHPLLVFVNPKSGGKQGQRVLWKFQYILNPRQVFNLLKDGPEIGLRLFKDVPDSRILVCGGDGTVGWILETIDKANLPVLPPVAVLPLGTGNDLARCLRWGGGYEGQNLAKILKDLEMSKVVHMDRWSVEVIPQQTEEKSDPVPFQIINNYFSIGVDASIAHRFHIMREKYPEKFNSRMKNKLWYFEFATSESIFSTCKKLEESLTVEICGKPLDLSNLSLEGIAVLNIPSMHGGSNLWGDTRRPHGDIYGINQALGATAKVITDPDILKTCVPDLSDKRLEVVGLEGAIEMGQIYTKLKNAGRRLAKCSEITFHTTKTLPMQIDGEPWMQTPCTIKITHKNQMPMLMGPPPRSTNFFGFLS

SMILES | pIC50 (DGKα) | pIC50 (DGKζ)
C[C@@H]1CN2c3c(c(=O)n(C)c4ccc(C#N)nc34)C(=O)OC[C@H]2CN1C(c1ccc(F)cc1)c1ccc(F)cc1 [Example 7, (9aR,12R)-11-(Bis(4-fluorophenyl)methyl)-5,12-dimethyl-6,7-dioxo-5,7,9,9a,10,11,12,13-octahydro-6H-pyrazino[2′,1′:3,4][1,4]oxazepino[6,5-c][1,5]naphthyridine-2-carbonitrile] | ≥ 7.40 | 5.70 to 6.70
CN1C(=O)CC2CN(C(c3ccc(F)cc3)c3ccc(F)cc3)CCN2c2c1c(=O)n(C)c1ccc(C#N)nc21 (single isomer, unassigned) [Example 2, 11-(Bis(4-fluorophenyl)methyl)-5,7-dimethyl-6,8-dioxo-5,6,7,8,9,9a,10,11,12,13-decahydropyrazino[1′,2′: 4,5][1,4]diazepino[2,3-c][1,5]naphthyridine-2-carbonitrile] | 6.70 to 7.40 | ≥ 7.40
Cn1c(=O)c2c(c3nc(C#N)ccc31)N1CCN(C(c3ccc(F)cc3)c3ccc(F)cc3)C[C@@H]1COC2=O [Example 3, (R)-11-(Bis(4-fluorophenyl)methyl)-5-methyl-6,7-dioxo-5,7,9,9a,10,11,12,13-octahydro-6H-pyrazino[2′,1′:3,4][1,4]oxazepino[6,5-c][1,5]naphthyridine-2-carbonitrile] | ≥ 7.40 | ≥ 7.40
Cn1c(=O)c2c(c3cc(CC#N)ccc31)N1CCN(C(c3ccc(F)cc3)c3ccc(F)cc3)C[C@@H]1COC2=O [Example 8, (R)-2-(3-(Bis(4-fluorophenyl)methyl)-9-methyl-7,8-dioxo-1,2,3,4,4a,5,8,9-octahydro-7H-pyrazino[2′,1′:3,4][1,4]oxazepino[6,5-c]quinolin-12-yl)acetonitrile] |  | 6.70 to 7.40
Cn1c(=O)c2c(c3ncc(CC#N)cc31)N1CCN(C(c3ccc(F)cc3)c3ccc(F)cc3)C[C@@H]1COC2=O [Example 10, (R)-2-(11-(Bis(4-fluorophenyl)methyl)-5-methyl-6,7-dioxo-5,7,9,9a,10,11,12,13-octahydro-6H-pyrazino[2′,1′:3,4][1,4]oxazepino[6,5-c][1,5]naphthyridin-3-yl)acetonitrile] |  | < 5.70
Cn1c(=O)c2c(c3nc(CC#N)cnc31)N1CCN(C(c3ccc(F)cc3)c3ccc(F)cc3)C[C@@H]1COC2=O [Example 5, (R)-2-(11-(Bis(4-fluorophenyl)methyl)-5-methyl-6,7-dioxo-5,7,9,9a,10,11,12,13-octahydro-6H-pyrazino[2,1-c]pyrazino[2′,3′: 5,6]pyrido[4,3-e][1,4]oxazepin-2-yl)acetonitrile] | 6.70 to 7.40 | 6.70 to 7.40
Cn1c(=O)c2c(c3nc(CC#N)ccc31)N1CCN(C(c3ccc(F)cc3)c3ccc(F)cc3)C[C@@H]1COC2=O [Example 4, (R)-2-(11-(Bis(4-fluorophenyl)methyl)-5-methyl-6,7-dioxo-5,7,9,9a,10,11,12,13-octahydro-6H-pyrazino[2′,1′:3,4][1,4]oxazepino[6,5-c][1,5]naphthyridin-2-yl)acetonitrile] | ≥ 7.40 | ≥ 7.40
Cn1c(=O)c2c(c3nc(C#N)ccc31)N1CCN(C(c3ccc(F)cc3)c3ccc(F)cc3)C[C@H]1COC2=O [Example 6, (S)-11-(Bis(4-fluorophenyl)methyl)-5-methyl-6,7-dioxo-5,7,9,9a,10,11,12,13-octahydro-6H-pyrazino[2′,1′:3,4][1,4]oxazepino[6,5-c][1,5]naphthyridine-2-carbonitrile] | ≥ 7.40 | ≥ 7.40
CN1C(=O)CC2CN(C(c3ccc(F)cc3)c3ccc(F)cc3)CCN2c2c1c(=O)n(C)c1ccc(C#N)nc21 (single isomer, unassigned) [Example 1, 11-(Bis(4-fluorophenyl)methyl)-5,7-dimethyl-6,8-dioxo-5,6,7,8,9,9a,10,11,12,13-decahydropyrazino[1′,2′: 4,5][1,4]diazepino[2,3-c][1,5]naphthyridine-2-carbonitrile] | ≥ 7.40 | 5.70 to 6.70
Cn1c(=O)c2c(c3ncc(C#N)cc31)N1CCN(C(c3ccc(F)cc3)c3ccc(F)cc3)C[C@@H]1COC2=O [Example 9, (R)-11-(Bis(4-fluorophenyl)methyl)-5-methyl-6,7-dioxo-5,7,9,9a,10,11,12,13-octahydro-6H-pyrazino[2′,1′:3,4][1,4]oxazepino[6,5-c][1,5]naphthyridine-3-carbonitrile] | ≥ 7.40 | < 5.70
